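Assay format: 96-well plates, 48-hour exposure. Abbreviation: GI50, concentration required for 50% inhibition of growth.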 Active and inactive are the calls of the source. Cut-off read from the data, not from the text of the source: active = GI50 up to about 1.1 µM and inactive = higher.
How the values were obtained:
Assay in all cases: NCI-60 cell line screen, 48 h
MDA-MB-435 = system: MDA-MB-435
NCI/ADR-RES = system: NCI/ADR-RES
HCC 2998 = system: HCC 2998
SK-OV-3 = system: SK-OV-3
Hs-578T = system: Hs-578T
PC-3 = system: PC-3
HT-29 = system: HT-29
HL-60 = system: HL-60
SNB-75 = system: SNB-75
T47D = system: T47D
SF-295 = system: SF-295
A498 = system: A498
CAKI-1 = system: CAKI-1
UACC-257 = system: UACC-257
MDA-MB-231 = system: MDA-MB-231
UO-31 = system: UO-31
HCT-116 = system: HCT-116
MCF7 = system: MCF7
SW-620 = system: SW-620
NCI-H226 = system: NCI-H226
M14 = system: M14
SK-MEL-5 = system: SK-MEL-5
OVCAR-3 = system: OVCAR-3
OVCAR-8 = system: OVCAR-8
CCRF-CEM = system: CCRF-CEM
BT-549 = system: BT-549
LOX IMVI = system: LOX IMVI
HOP-62 = system: HOP-62
KM12 = system: KM12
SK-MEL-2 = system: SK-MEL-2
MDA-N = system: MDA-N
HOP-92 = system: HOP-92
SF-268 = system: SF-268
Malme-3M = system: Malme-3M
IGROV-1 = system: IGROV-1
UACC-62 = system: UACC-62
A549 = system: A549
NCI-H460 = system: NCI-H460
SN12C = system: SN12C
RPMI-8226 = system: RPMI-8226
MOLT-4 = system: MOLT-4
K562 = system: K562
HCT-15 = system: HCT-15
U-251 = system: U-251
SR = system: SR
OVCAR-4 = system: OVCAR-4
DU-145 = system: DU-145
SK-MEL-28 = system: SK-MEL-28
COLO 205 = system: COLO 205
OVCAR-5 = system: OVCAR-5
EKVX = system: EKVX
RXF 393 = system: RXF 393
NCI-H23 = system: NCI-H23
SNB-19 = system: SNB-19
NCI-H522 = system: NCI-H522
786-0 = system: 786-0
ACHN = system: ACHN
SF-539 = system: SF-539
TK-10 = system: TK-10

In the case of Nc1nc(NCC2(CO)CCC2)cc(=O)[nH]1, the GI50 (MDA-MB-435) is reported as > 100 µM (inactive), the GI50 (NCI/ADR-RES) is reported as > 100 µM (inactive) and the GI50 (HCC 2998) is reported as > 100 µM (inactive). The GI50 (SK-OV-3) was > 100 µM (inactive), the GI50 (Hs-578T) was > 100 µM (inactive) and the GI50 (PC-3) was > 100 µM (inactive). The GI50 (HT-29) was > 100 µM (inactive), the GI50 (HL-60) was > 100 µM (inactive) and the GI50 (SNB-75) was > 100 µM (inactive). For the same molecule, the GI50 (T47D) was > 100 µM (inactive), the GI50 (SF-295) was > 100 µM (inactive) and the GI50 (A498) was > 100 µM (inactive). For the same molecule, the GI50 (CAKI-1) was > 100 µM (inactive), the GI50 (UACC-257) was > 100 µM (inactive) and the GI50 (MDA-MB-231) was > 100 µM (inactive). For the same molecule, the GI50 (UO-31) was > 100 µM (inactive), the GI50 (HCT-116) was > 100 µM (inactive) and the GI50 (MCF7) was > 100 µM (inactive). The GI50 (SW-620) was > 100 µM (inactive), the GI50 (NCI-H226) was > 100 µM (inactive) and the GI50 (M14) was > 100 µM (inactive). The GI50 (SK-MEL-5) was > 100 µM (inactive), the GI50 (OVCAR-3) was > 100 µM (inactive) and the GI50 (OVCAR-8) was > 100 µM (inactive). The GI50 (CCRF-CEM) was > 100 µM (inactive), the GI50 (BT-549) was > 100 µM (inactive) and the GI50 (LOX IMVI) was > 100 µM (inactive). For the same molecule, the GI50 (HOP-62) was > 100 µM (inactive), the GI50 (KM12) was > 100 µM (inactive) and the GI50 (SK-MEL-2) was > 100 µM (inactive). For the same molecule, the GI50 (MDA-N) was > 100 µM (inactive), the GI50 (HOP-92) was > 100 µM (inactive) and the GI50 (SF-268) was > 100 µM (inactive). For the same molecule, the GI50 (Malme-3M) was > 100 µM (inactive), the GI50 (IGROV-1) was > 100 µM (inactive) and the GI50 (UACC-62) was > 100 µM (inactive). The GI50 (A549) was > 100 µM (inactive), the GI50 (NCI-H460) was > 100 µM (inactive) and the GI50 (SN12C) was > 100 µM (inactive). For the same molecule, the GI50 (RPMI-8226) was > 100 µM (inactive), the GI50 (MOLT-4) was > 100 µM (inactive) and the GI50 (K562) was > 100 µM (inactive). For the same molecule, the GI50 (HCT-15) was over 100 µM, the GI50 (U-251) was > 100 µM (inactive) and the GI50 (SR) was > 100 µM (inactive). The GI50 (OVCAR-4) was > 100 µM (inactive), the GI50 (DU-145) was > 100 µM (inactive) and the GI50 (SK-MEL-28) was > 100 µM (inactive). For the same molecule, the GI50 (COLO 205) was > 100 µM (inactive), the GI50 (OVCAR-5) was > 100 µM (inactive) and the GI50 (EKVX) was > 100 µM (inactive). The GI50 (RXF 393) was > 100 µM (inactive), the GI50 (NCI-H23) was > 100 µM (inactive) and the GI50 (SNB-19) was > 100 µM (inactive). The GI50 (NCI-H522) was > 100 µM (inactive) and the GI50 (786-0) was > 100 µM (inactive).

With NC(=S)N/N=C\c1ccc(OCc2cccc(COc3ccc(/C=N/NC(N)=S)cc3)n2)cc1 the GI50 (MDA-MB-435) was 63.8 µM (inactive), the GI50 (NCI/ADR-RES) was > 100 µM (inactive) and the GI50 (SK-OV-3) was > 100 µM (inactive). The GI50 (Hs-578T) was > 100 µM (inactive), the GI50 (PC-3) was 21.6 µM (inactive) and the GI50 (HT-29) was > 100 µM (inactive). The GI50 (HL-60) was 10.5 µM (inactive), the GI50 (SNB-75) was > 100 µM (inactive) and the GI50 (T47D) was 0.164 µM (active). The GI50 (SF-295) was > 100 µM (inactive), the GI50 (A498) was > 100 µM (inactive) and the GI50 (CAKI-1) was 17 µM (inactive). The GI50 (UACC-257) was 20.2 µM (inactive), the GI50 (MDA-MB-231) was 5.25 µM (inactive) and the GI50 (UO-31) was 15.3 µM (inactive). For the same molecule, the GI50 (HCT-116) was 12 µM (inactive), the GI50 (MCF7) was 32.5 µM (inactive) and the GI50 (SW-620) was > 100 µM (inactive). The GI50 (NCI-H226) was > 100 µM (inactive), the GI50 (M14) was 43.4 µM (inactive) and the GI50 (SK-MEL-5) was 5.06 µM (inactive). For the same molecule, the GI50 (ACHN) was 9.53 µM (inactive), the GI50 (OVCAR-3) was 32.7 µM (inactive) and the GI50 (OVCAR-8) was > 100 µM (inactive). The GI50 (CCRF-CEM) was 45.7 µM (inactive), the GI50 (BT-549) was 2.39 µM (inactive) and the GI50 (LOX IMVI) was > 100 µM (inactive). For the same molecule, the GI50 (HOP-62) was > 100 µM (inactive), the GI50 (KM12) was > 100 µM (inactive) and the GI50 (SK-MEL-2) was 12.5 µM (inactive). For the same molecule, the GI50 (SF-539) was > 100 µM (inactive), the GI50 (MDA-N) was 56.8 µM (inactive) and the GI50 (HOP-92) was > 100 µM (inactive). For the same molecule, the GI50 (SF-268) was > 100 µM (inactive), the GI50 (Malme-3M) was 86.5 µM (inactive) and the GI50 (IGROV-1) was 14.8 µM (inactive). For the same molecule, the GI50 (A549) was > 100 µM (inactive), the GI50 (NCI-H460) was > 100 µM (inactive) and the GI50 (SN12C) was > 100 µM (inactive). The GI50 (RPMI-8226) was 4.33 µM (inactive), the GI50 (MOLT-4) was 34.7 µM (inactive) and the GI50 (K562) was 18.6 µM (inactive). For the same molecule, the GI50 (HCT-15) was 43.7 µM, the GI50 (U-251) was 45.4 µM (inactive) and the GI50 (SR) was 38.7 µM (inactive). For the same molecule, the GI50 (TK-10) was 76.7 µM (inactive), the GI50 (OVCAR-4) was 44.2 µM (inactive) and the GI50 (DU-145) was 34.8 µM (inactive). For the same molecule, the GI50 (SK-MEL-28) was 22.9 µM (inactive), the GI50 (COLO 205) was 5.73 µM (inactive) and the GI50 (OVCAR-5) was 17.3 µM (inactive). The GI50 (EKVX) was > 100 µM (inactive), the GI50 (RXF 393) was 1.63 µM (inactive) and the GI50 (NCI-H23) was 69.3 µM (inactive). For the same molecule, the GI50 (SNB-19) was > 100 µM (inactive), the GI50 (NCI-H522) was 2.88 µM (inactive) and the GI50 (786-0) was > 100 µM (inactive).

For CC#Cc1cc2c(cc1O)CC[C@@H]1[C@@H]2CC[C@]2(C)[C@@H](O)CC[C@@H]12, the GI50 (MDA-MB-435) was 0.134 µM (active), the GI50 (NCI/ADR-RES) was 0.885 µM (active) and the GI50 (HCC 2998) was 5.89 µM (inactive). For the same molecule, the GI50 (SK-OV-3) was 1.81 µM (inactive), the GI50 (Hs-578T) was 1.11 µM (active) and the GI50 (PC-3) was 3.92 µM (inactive). For the same molecule, the GI50 (HT-29) was 13.8 µM (inactive), the GI50 (HL-60) was 0.311 µM (active) and the GI50 (SNB-75) was 1.4 µM (inactive). The GI50 (T47D) was 3.15 µM (inactive), the GI50 (SF-295) was 0.406 µM (active) and the GI50 (A498) was 5.28 µM (inactive). The GI50 (CAKI-1) was 0.766 µM (active), the GI50 (UACC-257) was 1.76 µM (inactive) and the GI50 (MDA-MB-231) was 8.18 µM (inactive). The GI50 (UO-31) was 9.23 µM (inactive), the GI50 (MCF7) was 0.685 µM (active) and the GI50 (SW-620) was 0.655 µM (active). For the same molecule, the GI50 (NCI-H226) was 2.8 µM (inactive), the GI50 (M14) was 0.521 µM (active) and the GI50 (SK-MEL-5) was 0.484 µM (active). For the same molecule, the GI50 (ACHN) was 6.17 µM (inactive), the GI50 (OVCAR-8) was 2.09 µM (inactive) and the GI50 (CCRF-CEM) was 0.684 µM (active). For the same molecule, the GI50 (BT-549) was 11.9 µM (inactive), the GI50 (LOX IMVI) was 0.94 µM (active) and the GI50 (HOP-62) was 1.29 µM (inactive). The GI50 (KM12) was 3.08 µM (inactive), the GI50 (SK-MEL-2) was 1.06 µM (active) and the GI50 (MDA-N) was 0.178 µM (active). The GI50 (HOP-92) was 11.8 µM (inactive), the GI50 (SF-268) was 3.59 µM (inactive) and the GI50 (Malme-3M) was 0.582 µM (active). The GI50 (IGROV-1) was 4.54 µM (inactive), the GI50 (A549) was 2.01 µM (inactive) and the GI50 (NCI-H460) was 0.475 µM (active). For the same molecule, the GI50 (SN12C) was 6.15 µM (inactive), the GI50 (RPMI-8226) was 1.61 µM (inactive) and the GI50 (MOLT-4) was 0.621 µM (active). The GI50 (K562) was 0.344 µM (active), the GI50 (HCT-15) was 0.34 µM and the GI50 (U-251) was 0.748 µM (active). The GI50 (SR) was 0.288 µM (active), the GI50 (TK-10) was 19.9 µM (inactive) and the GI50 (OVCAR-4) was 12.8 µM (inactive). For the same molecule, the GI50 (DU-145) was 3.43 µM (inactive), the GI50 (SK-MEL-28) was 7.36 µM (inactive) and the GI50 (COLO 205) was 17.7 µM (inactive). For the same molecule, the GI50 (OVCAR-5) was 17.9 µM (inactive), the GI50 (EKVX) was 2.49 µM (inactive) and the GI50 (RXF 393) was 2.45 µM (inactive). The GI50 (NCI-H23) was 1.54 µM (inactive), the GI50 (SNB-19) was 2.4 µM (inactive) and the GI50 (NCI-H522) was 0.289 µM (active). The GI50 (786-0) was 1.58 µM (inactive).

Reference: ChEMBL document CHEMBL1201862, “PubChem BioAssay data set” (2004)
